From PMC12281424, “A Rac-specific competitive inhibitor of guanine nucleotide binding reduces metastasis in triple-negative breast cancer” (Cell Reports Medicine, 2025)

Key:
[1] = Ames fluctuation test (1st group); format: cell-based
Source text: Data S3. Ames-fluctuation assay-A41.
Test Concentration Count Positive Significance Fisher Exact Test
(# of wells) (- to +++) (p-value)
Ames fluctuation test (TA100 + S9

[2] = molecular target: Monoamine Oxidase MAO-A (Homo sapiens, UniProt P21397); test: Safety screen; format: biochemical
Experimental: (§1) Blood cell counts, kinase profiler, safety screen, bacterial cytotoxicity, Ames, micronucleus assays were performed by the company Eurofins (France). The kinase profiler was performed by the company Eurofins (Discovery, Panlab and Cerep).

[3] = molecular target: Androgen (Testosterone) (Homo sapiens, UniProt P10275); test: Safety screen; format: binding
Experimental: as §1

[4] = molecular target: Chemokine CCR1 (Homo sapiens, UniProt P32246); test: Safety screen; format: binding
Experimental: Blood cell counts, kinase profiler, safety screen, bacterial cytotoxicity, Ames, micronucleus assays were performed by the company Eurofins (France).

[5] = molecular target: Opiate µ(OP3, MOP) (Homo sapiens, UniProt P35372); test: Safety screen; format: binding
Sequence of Opiate µ(OP3, MOP) (P35372 whole entry): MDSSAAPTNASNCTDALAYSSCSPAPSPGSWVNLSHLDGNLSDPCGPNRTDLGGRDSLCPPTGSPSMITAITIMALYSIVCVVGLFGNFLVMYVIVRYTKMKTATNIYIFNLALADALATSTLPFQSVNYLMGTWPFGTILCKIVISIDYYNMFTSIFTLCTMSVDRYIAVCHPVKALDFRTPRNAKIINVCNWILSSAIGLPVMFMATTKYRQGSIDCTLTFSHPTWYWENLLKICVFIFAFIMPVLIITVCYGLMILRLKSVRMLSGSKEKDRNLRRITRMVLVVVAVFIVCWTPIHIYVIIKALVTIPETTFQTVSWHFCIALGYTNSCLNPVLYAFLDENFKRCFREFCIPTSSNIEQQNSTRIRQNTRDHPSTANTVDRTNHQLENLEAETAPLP
Experimental: as §1

[6] = molecular target: BrSK1(h) (Homo sapiens, UniProt Q8TDC3); test: Kinase Profiler; format: biochemical
Sequence of BrSK1(h) (Q8TDC3 whole entry): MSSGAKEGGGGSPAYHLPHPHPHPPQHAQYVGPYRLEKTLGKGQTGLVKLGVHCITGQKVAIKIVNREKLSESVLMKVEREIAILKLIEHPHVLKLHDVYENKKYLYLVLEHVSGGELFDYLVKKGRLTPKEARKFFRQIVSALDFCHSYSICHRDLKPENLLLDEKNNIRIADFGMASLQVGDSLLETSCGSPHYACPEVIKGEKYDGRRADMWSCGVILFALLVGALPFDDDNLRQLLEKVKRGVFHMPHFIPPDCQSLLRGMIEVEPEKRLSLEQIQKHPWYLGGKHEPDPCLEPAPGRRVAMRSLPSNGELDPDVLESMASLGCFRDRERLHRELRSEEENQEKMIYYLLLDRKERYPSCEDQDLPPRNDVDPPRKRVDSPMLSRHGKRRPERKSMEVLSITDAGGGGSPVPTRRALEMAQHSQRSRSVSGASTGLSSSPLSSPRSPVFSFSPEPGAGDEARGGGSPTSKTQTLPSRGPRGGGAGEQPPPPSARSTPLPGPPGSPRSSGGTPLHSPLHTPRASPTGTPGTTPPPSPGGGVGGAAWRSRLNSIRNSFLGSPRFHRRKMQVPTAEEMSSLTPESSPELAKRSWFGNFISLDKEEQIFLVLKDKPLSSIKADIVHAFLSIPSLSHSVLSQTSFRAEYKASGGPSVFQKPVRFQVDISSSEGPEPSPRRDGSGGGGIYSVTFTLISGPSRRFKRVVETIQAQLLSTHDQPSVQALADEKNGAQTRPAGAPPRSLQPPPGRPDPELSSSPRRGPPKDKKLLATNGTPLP
Experimental: as §1

[7] = molecular target: CaMKK1(h) (Homo sapiens, UniProt Q8N5S9); test: Kinase Profiler; format: biochemical
Experimental: (§2) The kinase profiler was performed by the company Eurofins (Discovery, Panlab and Cerep).

[8] = molecular target: CDK5/p25(h) (Homo sapiens, UniProt Q00535); test: Kinase Profiler; format: biochemical
Sequence of CDK5/p25(h) (Q00535 whole entry): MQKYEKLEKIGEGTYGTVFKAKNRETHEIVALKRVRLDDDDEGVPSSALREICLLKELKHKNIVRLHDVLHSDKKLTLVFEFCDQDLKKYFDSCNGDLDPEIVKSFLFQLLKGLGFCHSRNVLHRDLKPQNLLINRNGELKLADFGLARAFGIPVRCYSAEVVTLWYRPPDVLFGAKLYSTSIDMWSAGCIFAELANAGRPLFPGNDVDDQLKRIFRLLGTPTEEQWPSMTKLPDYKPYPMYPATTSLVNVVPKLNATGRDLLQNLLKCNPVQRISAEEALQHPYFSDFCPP
Sequence of CDK5/p25(h) (Q15078 99-307 partner limits assumed): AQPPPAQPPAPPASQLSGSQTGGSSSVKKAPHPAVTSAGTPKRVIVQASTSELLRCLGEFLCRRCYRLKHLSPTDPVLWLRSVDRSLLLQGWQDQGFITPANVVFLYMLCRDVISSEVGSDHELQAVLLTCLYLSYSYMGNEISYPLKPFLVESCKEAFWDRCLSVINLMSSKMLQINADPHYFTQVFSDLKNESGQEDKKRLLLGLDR
Experimental: as §1

[9] = molecular target: CDKL2(h) (Homo sapiens, UniProt Q92772); test: Kinase Profiler; format: biochemical
Experimental: as §2

[10] = molecular target: CHK2(I157T)(h) (Homo sapiens, UniProt O96017, I157T); test: Kinase Profiler; format: biochemical
Experimental: as §2

[11] = molecular target: CK1α(h) (Homo sapiens, UniProt P48729); test: Kinase Profiler; format: biochemical
Experimental: as §1

[12] = molecular target: cKit(D816H)(h) (Homo sapiens, UniProt P10721, D816H); test: Kinase Profiler; format: biochemical
Experimental: as §1

[13] = molecular target: c-RAF(h) (Homo sapiens, UniProt P04049); test: Kinase Profiler; format: biochemical
Experimental: as §2

[14] = molecular target: DCAMKL3(h) (Homo sapiens, UniProt Q9C098); test: Kinase Profiler; format: biochemical
Sequence of DCAMKL3(h) (Q9C098 whole entry): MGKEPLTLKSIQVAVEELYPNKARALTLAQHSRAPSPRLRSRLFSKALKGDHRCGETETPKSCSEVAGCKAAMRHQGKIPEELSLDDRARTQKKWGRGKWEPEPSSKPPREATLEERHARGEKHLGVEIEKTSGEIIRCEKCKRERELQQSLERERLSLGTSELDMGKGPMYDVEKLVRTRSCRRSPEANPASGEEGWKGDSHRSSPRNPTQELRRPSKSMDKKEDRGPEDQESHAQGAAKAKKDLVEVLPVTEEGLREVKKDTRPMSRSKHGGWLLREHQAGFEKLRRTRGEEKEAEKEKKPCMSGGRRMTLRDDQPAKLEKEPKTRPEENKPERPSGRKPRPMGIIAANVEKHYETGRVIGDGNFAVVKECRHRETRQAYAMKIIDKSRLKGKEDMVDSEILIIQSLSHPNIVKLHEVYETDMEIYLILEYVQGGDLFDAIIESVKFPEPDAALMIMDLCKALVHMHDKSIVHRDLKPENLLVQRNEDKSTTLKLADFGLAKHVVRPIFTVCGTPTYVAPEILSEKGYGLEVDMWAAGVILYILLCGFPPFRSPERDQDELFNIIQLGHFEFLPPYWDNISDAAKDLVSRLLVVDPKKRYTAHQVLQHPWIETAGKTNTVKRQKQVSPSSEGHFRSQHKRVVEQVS
Experimental: as §1

[15] = molecular target: DDR1(h) (Homo sapiens, UniProt Q08345); test: Kinase Profiler; format: biochemical
Experimental: as §1

[16] = molecular target: DDR2(h) (Homo sapiens, UniProt Q16832); test: Kinase Profiler; format: biochemical
Experimental: as §1

[17] = molecular target: DRAK1(h) (Homo sapiens, UniProt Q9UEE5); test: Kinase Profiler; format: biochemical
Experimental: as §1

[18] = molecular target: DYRK2(h) (Homo sapiens, UniProt Q92630); test: Kinase Profiler; format: biochemical
Experimental: as §2

[19] = molecular target: GRK6(h) (Homo sapiens, UniProt P43250); test: Kinase Profiler; format: biochemical
Sequence of GRK6(h) (P43250 whole entry): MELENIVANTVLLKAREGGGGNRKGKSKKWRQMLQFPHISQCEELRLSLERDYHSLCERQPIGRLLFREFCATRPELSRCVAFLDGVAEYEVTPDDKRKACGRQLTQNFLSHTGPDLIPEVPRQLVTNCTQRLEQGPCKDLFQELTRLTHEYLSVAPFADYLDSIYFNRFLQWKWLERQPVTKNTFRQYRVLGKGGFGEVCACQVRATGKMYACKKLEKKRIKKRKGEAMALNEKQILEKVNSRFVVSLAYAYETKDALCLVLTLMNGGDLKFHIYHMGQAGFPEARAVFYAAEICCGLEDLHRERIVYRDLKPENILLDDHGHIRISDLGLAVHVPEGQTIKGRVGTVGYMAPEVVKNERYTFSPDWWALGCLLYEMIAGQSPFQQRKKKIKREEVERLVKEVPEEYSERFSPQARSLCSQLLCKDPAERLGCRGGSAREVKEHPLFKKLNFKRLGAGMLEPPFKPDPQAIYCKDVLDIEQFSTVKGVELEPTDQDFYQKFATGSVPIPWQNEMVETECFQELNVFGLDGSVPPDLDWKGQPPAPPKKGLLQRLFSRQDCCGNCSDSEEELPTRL
Experimental: as §1

[20] = molecular target: IR(h) (Homo sapiens, UniProt P06213); test: Kinase Profiler; format: biochemical
Experimental: as §1

[21] = molecular target: JAK2(h) (Homo sapiens, UniProt O60674); test: Kinase Profiler; format: biochemical
Experimental: as §2

[22] = molecular target: JNK2α2(h) (Homo sapiens, UniProt P45984); test: Kinase Profiler; format: biochemical
Experimental: as §2

[23] = molecular target: LIMK2(h) (Homo sapiens, UniProt P53671); test: Kinase Profiler; format: biochemical
Experimental: as §2

[24] = molecular target: Met(Y1248C)(h) (Homo sapiens, UniProt P08581, Y1230C); test: Kinase Profiler; format: biochemical
Experimental: as §2

[25] = molecular target: MYO3B(h) (Homo sapiens, UniProt Q8WXR4); test: Kinase Profiler; format: biochemical
Experimental: as §2

[26] = molecular target: NEK1(h) (Homo sapiens, UniProt Q96PY6); test: Kinase Profiler; format: biochemical
Experimental: as §2

[27] = molecular target: NEK4(h) (Homo sapiens, UniProt P51957); test: Kinase Profiler; format: biochemical
Sequence of NEK4(h) (P51957 whole entry): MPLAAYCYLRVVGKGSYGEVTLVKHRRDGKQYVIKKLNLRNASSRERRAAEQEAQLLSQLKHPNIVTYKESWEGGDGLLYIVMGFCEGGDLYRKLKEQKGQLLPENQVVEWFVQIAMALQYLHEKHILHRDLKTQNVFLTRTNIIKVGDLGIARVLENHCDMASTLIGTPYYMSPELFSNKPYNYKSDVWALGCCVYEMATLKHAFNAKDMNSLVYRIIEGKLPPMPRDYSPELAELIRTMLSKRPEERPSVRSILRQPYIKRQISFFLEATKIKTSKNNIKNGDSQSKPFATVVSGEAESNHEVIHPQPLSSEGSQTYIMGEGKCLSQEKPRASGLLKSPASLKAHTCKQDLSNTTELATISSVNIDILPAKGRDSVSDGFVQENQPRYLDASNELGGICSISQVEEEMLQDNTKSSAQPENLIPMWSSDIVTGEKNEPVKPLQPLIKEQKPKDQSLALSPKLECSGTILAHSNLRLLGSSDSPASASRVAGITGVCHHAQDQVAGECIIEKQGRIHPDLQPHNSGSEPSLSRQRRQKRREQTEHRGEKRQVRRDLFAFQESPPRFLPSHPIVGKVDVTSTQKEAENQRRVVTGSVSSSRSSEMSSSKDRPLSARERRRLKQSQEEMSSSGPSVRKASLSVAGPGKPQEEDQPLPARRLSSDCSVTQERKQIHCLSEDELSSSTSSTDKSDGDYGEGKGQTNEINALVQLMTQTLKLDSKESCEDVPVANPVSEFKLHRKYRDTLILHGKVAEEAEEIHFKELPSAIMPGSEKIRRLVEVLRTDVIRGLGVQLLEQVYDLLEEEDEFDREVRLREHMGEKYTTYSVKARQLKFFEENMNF
Experimental: as §2

[28] = molecular target: PASK(h) (Homo sapiens, UniProt Q96RG2); test: Kinase Profiler; format: biochemical
Experimental: as §2

[29] = molecular target: Pim-3(h) (Homo sapiens, UniProt Q86V86); test: Kinase Profiler; format: biochemical
Experimental: as §1

[30] = molecular target: PKCβI(h) (Homo sapiens, UniProt P05771); test: Kinase Profiler; format: biochemical
Experimental: as §2

[31] = molecular target: SRMS(h) (Homo sapiens, UniProt Q9H3Y6); test: Kinase Profiler; format: biochemical
Experimental: as §2

[32] = molecular target: WNK4(h) (Homo sapiens, UniProt Q96J92); test: Kinase Profiler; format: biochemical
Sequence of WNK4(h) (Q96J92 whole entry): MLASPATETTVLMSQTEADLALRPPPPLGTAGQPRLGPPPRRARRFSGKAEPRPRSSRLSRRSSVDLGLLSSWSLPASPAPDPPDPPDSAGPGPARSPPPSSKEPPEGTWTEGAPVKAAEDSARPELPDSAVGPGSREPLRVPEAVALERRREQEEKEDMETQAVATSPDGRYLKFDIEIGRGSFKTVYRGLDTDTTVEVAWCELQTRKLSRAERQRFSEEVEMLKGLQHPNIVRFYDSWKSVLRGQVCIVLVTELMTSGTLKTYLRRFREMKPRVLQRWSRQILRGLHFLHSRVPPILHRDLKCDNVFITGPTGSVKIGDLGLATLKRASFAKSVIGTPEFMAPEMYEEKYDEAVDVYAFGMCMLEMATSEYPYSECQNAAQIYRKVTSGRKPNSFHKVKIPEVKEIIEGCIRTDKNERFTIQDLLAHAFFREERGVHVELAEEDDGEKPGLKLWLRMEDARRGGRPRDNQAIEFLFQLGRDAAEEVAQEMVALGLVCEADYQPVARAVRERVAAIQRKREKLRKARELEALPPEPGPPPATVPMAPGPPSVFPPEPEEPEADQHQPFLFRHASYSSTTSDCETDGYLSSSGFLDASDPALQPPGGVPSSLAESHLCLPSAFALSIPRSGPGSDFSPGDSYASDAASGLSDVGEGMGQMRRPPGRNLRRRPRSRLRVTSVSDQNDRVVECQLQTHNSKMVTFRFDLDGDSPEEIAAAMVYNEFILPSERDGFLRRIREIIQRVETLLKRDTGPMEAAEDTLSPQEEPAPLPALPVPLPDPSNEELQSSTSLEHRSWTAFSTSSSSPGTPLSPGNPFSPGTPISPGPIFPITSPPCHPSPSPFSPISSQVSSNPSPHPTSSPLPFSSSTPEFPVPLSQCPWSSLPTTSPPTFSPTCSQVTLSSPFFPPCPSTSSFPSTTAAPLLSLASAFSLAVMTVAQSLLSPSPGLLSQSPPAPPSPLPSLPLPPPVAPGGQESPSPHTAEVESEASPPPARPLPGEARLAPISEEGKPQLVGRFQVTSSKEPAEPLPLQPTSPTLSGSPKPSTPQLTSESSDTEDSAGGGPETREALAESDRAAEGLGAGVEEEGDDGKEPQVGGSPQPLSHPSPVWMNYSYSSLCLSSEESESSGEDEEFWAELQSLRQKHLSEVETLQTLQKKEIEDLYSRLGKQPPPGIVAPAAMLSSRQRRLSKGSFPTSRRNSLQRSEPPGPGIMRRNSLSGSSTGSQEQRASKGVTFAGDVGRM
Experimental: as §2

[33] = molecular target: PI3K (p110a(E545K)/p85a)(h) (Homo sapiens, UniProt P42336, E545K); test: Kinase Profiler; format: biochemical
Experimental: as §2

[34] = molecular target: RHOA (Homo sapiens, UniProt P61586); test: Surface plasmon resonance; format: binding; parameters: purchased Cytoskeleton RC01; settings: A41 0 to 25 μM
Experimental: SPR immobilization was performed at 25°C. RAC1, RHOA and CDC42 purified proteins (respectively […] and CD01, Cytoskeleton) were diluted to 5 μg/mL in Na^+ acetate buffer (pH 5.0) and injected into sensor chip CM5 (GE Healthcare) in a Biacore T200 (GE Healthcare) that was activated with NHS/EDC buffer. Approximately 5,000 response units of the purified protein were immobilized on the biosensor chip. Biosensor chips were blocked by an injection of 1 mM ethanolamine (pH 8.5). SPR analysis was performed at 25°C in HBSEP running buffer (5% DMSO) with or without EDTA (20 mM). A41 compound was injected over the RAC1, RHOA or CDC42 functionalized surface in concentration range from 0 to 25μM. Association and dissociation phases were monitored during 60s and 300s, respectively.

For `COc1ccc(OC)c(NS(=O)(=O)c2ccc(NC(=O)CCSc3ccc(C)cc3)cc2)c1` [Compound A41], the “Count Positive (# of wells)” value ([1]; 1.0E-04 M) was 1, the “Count Positive (# of wells)” value ([1]; 1.0E-05 M) was 2 and the “Count Positive (# of wells)” value ([1]; 5.0E-05 M) was 0. For the same molecule, the “Count Positive (# of wells)” value ([1]; 5.0E-06 M) was 0, the “% inh.” value [2] was 10% and the “% inh.” value [3] was 10%. The “% inh.” value [4] was 2%, the “% inh.” value [5] was 14% and the “Activity(%)” value [6] was 86%. For the same molecule, the “Activity(%)” value [7] was 95%, the “Activity(%)” value [8] was 110% and the “Activity(%)” value [9] was 103%. The “Activity(%)” value [10] was 112%, the “Activity(%)” value [11] was 102% and the “Activity(%)” value [12] was 109%. For the same molecule, the “Activity(%)” value [13] was 93%, the “Activity(%)” value [14] was 104% and the “Activity(%)” value [15] was 116%. The “Activity(%)” value [16] was 114%, the “Activity(%)” value [17] was 101% and the “Activity(%)” value [18] was 104%. For the same molecule, the “Activity(%)” value [19] was 100%, the “Activity(%)” value [20] was 137% and the “Activity(%)” value [21] was 114%. For the same molecule, the “Activity(%)” value [22] was 101%, the “Activity(%)” value [23] was 115% and the “Activity(%)” value [24] was 118%. The “Activity(%)” value [25] was 106%, the “Activity(%)” value [26] was 104% and the “Activity(%)” value [27] was 108%. For the same molecule, the “Activity(%)” value [28] was 97%, the “Activity(%)” value [29] was 101% and the “Activity(%)” value [30] was 98%. For the same molecule, the “Activity(%)” value [31] was 102%, the “Activity(%)” value [32] was 107% and the “Activity(%)” value [33] was 105%. For the same molecule, the binding [34] was “No binding was measured”.
